From patent US7601716B2, “Pyridopyrazines and derivatives thereof as ALK and c-Met inhibitors” (Cephalon, Inc., priority 2006, dated 2009)

Key:
[1] = biological target: T1, c-Met (cytoplasmic domain) (Homo sapiens, UniProt P08581); test: c-Met Kinase Assay (ELISA/TRF, PLC-γ substrate); format: biochemical; settings: 3 μM ATP (Km level); read-out: c-Met Kinase Inhibition (IC50)
T1 construct: Reactions were initiated with 30 ng/mL c-Met (cytoplasmic domain, Invitrogen Corporation #PV3143); purchased Invitrogen Corporation PV3143
T1 sequence (P08581 956-1390 limits assumed): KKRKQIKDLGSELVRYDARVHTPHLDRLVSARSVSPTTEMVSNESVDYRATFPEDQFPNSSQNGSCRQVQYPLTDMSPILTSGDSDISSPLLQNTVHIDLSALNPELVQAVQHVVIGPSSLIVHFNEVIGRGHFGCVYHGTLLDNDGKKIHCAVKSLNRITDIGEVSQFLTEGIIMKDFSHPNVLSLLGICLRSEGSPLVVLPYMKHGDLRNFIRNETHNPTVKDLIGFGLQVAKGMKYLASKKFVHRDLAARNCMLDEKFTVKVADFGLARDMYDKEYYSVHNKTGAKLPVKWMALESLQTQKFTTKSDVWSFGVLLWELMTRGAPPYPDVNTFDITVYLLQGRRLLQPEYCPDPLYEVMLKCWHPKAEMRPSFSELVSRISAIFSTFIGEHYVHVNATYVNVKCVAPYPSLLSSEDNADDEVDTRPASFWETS
Summary of the method: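 Readout is TRF of europium anti-phosphotyrosine (PT66) bound to GST–PLC-γ substrate coated at 10 μg/mL, after a 15 min, 37 °C reaction started with 30 ng/mL c-Met cytoplasmic domain. Percent inhibition plotted against log compound concentration and fitted (variable slope) for IC50.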

[2] = biological target: baculovirus-expressed ALK (Homo sapiens, UniProt Q9UM73); test: ALK Kinase Assay (ELISA/TRF, PLC-γ substrate); format: biochemical; settings: read-out: ALK Kinase Inhibition (IC50); also: 1 µM ATP (Km level)
Chain of baculovirus-expressed ALK (Q9UM73 19-1620): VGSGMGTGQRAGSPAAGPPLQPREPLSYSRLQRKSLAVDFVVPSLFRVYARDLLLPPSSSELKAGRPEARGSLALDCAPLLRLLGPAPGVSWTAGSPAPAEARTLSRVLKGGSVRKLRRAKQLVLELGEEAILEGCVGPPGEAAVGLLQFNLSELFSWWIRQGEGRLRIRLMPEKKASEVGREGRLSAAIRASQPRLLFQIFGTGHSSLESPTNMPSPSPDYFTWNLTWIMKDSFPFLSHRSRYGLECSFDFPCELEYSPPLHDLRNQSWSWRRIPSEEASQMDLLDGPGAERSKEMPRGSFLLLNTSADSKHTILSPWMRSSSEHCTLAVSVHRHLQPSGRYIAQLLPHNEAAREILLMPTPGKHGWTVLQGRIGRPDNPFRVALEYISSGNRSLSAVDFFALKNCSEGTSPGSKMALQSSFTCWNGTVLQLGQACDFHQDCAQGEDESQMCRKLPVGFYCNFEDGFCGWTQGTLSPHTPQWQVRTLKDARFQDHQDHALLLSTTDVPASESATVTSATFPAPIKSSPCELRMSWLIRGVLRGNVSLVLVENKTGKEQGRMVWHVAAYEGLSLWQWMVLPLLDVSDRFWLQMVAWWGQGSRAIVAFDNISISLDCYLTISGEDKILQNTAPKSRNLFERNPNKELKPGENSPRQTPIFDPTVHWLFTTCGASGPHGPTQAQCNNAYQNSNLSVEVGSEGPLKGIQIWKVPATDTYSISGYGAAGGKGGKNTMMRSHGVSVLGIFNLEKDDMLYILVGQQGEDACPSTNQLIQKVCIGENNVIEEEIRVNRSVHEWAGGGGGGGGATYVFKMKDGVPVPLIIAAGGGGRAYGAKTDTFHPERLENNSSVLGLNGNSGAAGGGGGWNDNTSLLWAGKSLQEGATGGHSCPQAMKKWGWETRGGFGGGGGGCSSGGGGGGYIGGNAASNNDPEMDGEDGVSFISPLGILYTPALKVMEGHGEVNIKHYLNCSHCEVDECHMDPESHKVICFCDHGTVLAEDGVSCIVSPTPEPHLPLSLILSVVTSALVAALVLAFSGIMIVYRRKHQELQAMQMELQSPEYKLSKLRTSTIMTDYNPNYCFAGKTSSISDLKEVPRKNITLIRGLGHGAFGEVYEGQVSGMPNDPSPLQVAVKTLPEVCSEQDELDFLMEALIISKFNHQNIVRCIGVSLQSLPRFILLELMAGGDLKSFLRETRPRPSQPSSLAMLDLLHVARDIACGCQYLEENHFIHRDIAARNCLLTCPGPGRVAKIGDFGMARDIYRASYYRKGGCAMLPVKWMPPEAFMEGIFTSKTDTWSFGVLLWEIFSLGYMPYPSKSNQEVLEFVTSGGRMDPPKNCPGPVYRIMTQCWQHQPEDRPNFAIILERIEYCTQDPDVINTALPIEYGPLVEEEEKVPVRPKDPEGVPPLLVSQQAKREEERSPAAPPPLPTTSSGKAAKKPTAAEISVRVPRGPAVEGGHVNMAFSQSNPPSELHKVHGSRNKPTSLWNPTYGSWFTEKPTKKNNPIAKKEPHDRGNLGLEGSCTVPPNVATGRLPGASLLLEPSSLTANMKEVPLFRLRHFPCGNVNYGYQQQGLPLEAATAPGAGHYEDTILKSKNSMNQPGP
Summary of the method: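 IC50 values fitted by nonlinear sigmoidal regression (variable slope) of percent inhibition against log compound concentration. Read-out was TRF of Eu-N1 anti-phosphotyrosine antibody bound to phosphorylated, plate-coated GST-PLC-γ (10 µg/mL). Kinase reaction used ALK at 30 ng/ml for 15 min at 37 °C.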

| SMILES | IC50 [1] [µM] | melting point | IC50 [2] [µM] |
| --- | --- | --- | --- |
| OC1CCNc2nc(Br)ccc21 (stereo not drawn) [Example 267, 7-bromo-1,2,3,4-tetrahydro-[1,8]naphthyridin-4-ol] | > 100 | 130 to 131 °C | 10 to 100 |
| Fc1ccc(F)c(/C=C2/CCNc3nc(Br)ccc32)c1 [Example 283, 7-Bromo-4-[1-(2,5-difluorophenyl)methylidene]-1,2,3,4-tetrahydro-[1,8]naphthyridine] | > 100 | 178 to 179 °C | > 100 |
| O=C1CCNc2nc(Br)ccc21 [Example 266, 7-bromo-2,3-dihydro-1H-[1,8]naphthyridin-4-one] | > 100 | 196 to 197 °C | > 100 |
| O=C(c1ccc(-c2cnc3c(c2)N(Cc2c(Cl)cccc2Cl)C(=O)CN3)cc1)N1CCC(N2CCCC2)CC1 [Example 161, 1-(2,6-Dichlorobenzyl)-7-[4-(4-(pyrrolidin-1-yl)piperidine-1-carbonyl)phenyl]-3,4-dihydro-1H-pyrido[2,3-b]pyrazin-2-one] | 0.1 to 1 | 199 °C | 0.1 to 1 |
| CN1CCN(C(=O)c2ccc(-c3cnc4c(c3)N(C(=O)c3cc(F)ccc3F)CCN4)cc2)CC1 [Example 88, (2,5-Difluorophenyl)-{7-[4-(4-methylpiperazine-1-carbonyl)phenyl]-3,4-dihydro-2H-pyrido[2,3-b]pyrazin-1-yl}-methanone] | 1 to 10 | 201 to 203 °C | 10 to 100 |
| O=C1CNc2ncc(I)cc2N1Cc1cccnc1Cl [Example 299, 1-(2-Chloropyridin-3-ylmethyl)-7-iodo-3,4-dihydro-1H-pyrido[2,3-b]pyrazin-2-one] | > 100 | 249 °C | 1 to 10 |
| CC(c1c(F)ccc(F)c1Cl)N1CCNc2ncc(I)cc21 (stereo not drawn) [Example 176, 1-[1-(2-Chloro-3,6-difluorophenyl)ethyl]-7-iodo-1,2,3,4-tetrahydropyrido[2,3-b]pyrazine] | 10 to 100 | 166 °C | 1 to 10 |
| CCOC(=O)c1ccc(-c2cnc3c(c2)N(Cc2ccccc2)CCN3)cc1 [Example 35, 4-(1-Benzyl-1,2,3,4-tetrahydropyrido[2,3-b]pyrazin-7-yl)benzoic acid ethyl ester] | > 100 | 178 to 179 °C | 1 to 10 |
| NCC#Cc1cnc2c(c1)N(Cc1cc(Cl)ccc1Cl)CCN2 [Example 169, 3-[1-(2,5-Dichlorobenzyl)-1,2,3,4-tetrahydropyrido[2,3-b]pyrazin-7-yl]prop-2-ynylamine] | 10 to 100 | 183 °C | 0.1 to 1 |
| O=C(c1ccccc1)N1CCNc2ncc(-c3cccnc3)cc21 [Example 43, Phenyl-(7-pyridin-3-yl-3,4-dihydro-2H-pyrido[2,3-b]pyrazin-1-yl)methanone] | 10 to 100 | 219 to 220 °C | > 100 |
| O=C(O)CCNc1cccc(Br)n1 [Example 265, 3-(6-bromo-pyridin-2-ylamino)propionic acid] | > 100 | 108 to 109 °C | > 100 |
| CN(C)CCCNC(=O)c1ccc(-c2cnc3c(c2)N(C(=O)c2ccccc2)CCN3)cc1 [Example 53, 4-(1-Benzoyl-1,2,3,4-tetrahydropyrido[2,3-b]pyrazin-7-yl)-N-(3-dimethylamino-propyl)benzamide] | 10 to 100 | 94 °C | > 100 |
| O=S(=O)(c1cc(F)ccc1F)N1CCNc2ncc(I)cc21 [Example 121, 1-(2,5-Difluorobenzenesulfonyl)-7-iodo-1,2,3,4-tetrahydropyrido[2,3-b]pyrazine] | 10 to 100 | 187 to 188 °C | 1 to 10 |
| Fc1cc(F)c(CN2CCNc3ncc(I)cc32)cc1F [Example 82, 7-Iodo-1-(2,4,5-trifluorobenzyl)-1,2,3,4-tetrahydropyrido[2,3-b]pyrazine] | 10 to 100 | 154 to 156 °C | > 100 |
| O=C1CNc2ncc(I)cc2N1Cc1ccccc1OC(F)(F)F [Example 294, 7-Iodo-1-[2-(trifluoromethoxy)benzyl]-3,4-dihydro-1H-pyrido[2,3-b]pyrazin-2-one] | 10 to 100 | 235 °C | 10 to 100 |
| CC1(C)CN(Cc2cc(F)ccc2F)c2cc(I)cnc2N1 [Example 93, 1-(2,5-Difluorobenzyl)-7-iodo-3,3-dimethyl-1,2,3,4-tetrahydropyrido[2,3-b]pyrazine] | > 100 | 168 to 169 °C | > 100 |
| O=C(O)c1ccc(-c2cnc3c(c2)N(Cc2c(Cl)cccc2Cl)C(=O)CN3)cc1 [Example 140, 4-[1-(2,6-Dichlorobenzyl)-2-oxo-1,2,3,4-tetrahydropyrido[2,3-b]pyrazin-7-yl]benzoic acid] | 1 to 10 | > 200 °C | 1 to 10 |
| CN1CCN(C(=O)c2ccc(-c3cnc4c(c3)N(Cc3cc(F)ccc3F)CC(C)(C)N4)cc2)CC1 [Example 97, {4-[1-(2,5-Difluorobenzyl)-3,3-dimethyl-1,2,3,4-tetrahydropyrido[2,3-b]pyrazin-7-yl]phenyl}-(4-methylpiperazin-1-yl)methanone] | > 100 | 191 to 192 °C | 10 to 100 |
| O=C1CNc2ncc(I)cc2N1Cc1cc(Cl)ccc1Cl [Example 155, 1-(2,5-Dichlorobenzyl)-7-iodo-3,4-dihydro-1H-pyrido[2,3-b]pyrazin-2-one] | > 100 | > 200 °C | 10 to 100 |
| O=C1CNc2ncc(I)cc2N1Cc1cc(F)ccc1C(F)(F)F [Example 133, 1-(5-Fluoro-2-trifluoromethylbenzyl)-7-iodo-3,4-dihydro-1H-pyrido[2,3-b]pyrazin-2-one] | > 100 | 244 to 245 °C | > 100 |

Further lines, results first:

| IC50 [1] [µM] | melting point | IC50 [2] [µM] | SMILES |
| --- | --- | --- | --- |
| 10 to 100 | 124 to 126 °C | 1 to 10 | Clc1cccc(OC2CCNc3ncc(-c4ccc(N5CCOCC5)cc4)cc32)c1 (stereo not drawn) [Example 280, 4-(3-Chlorophenoxy)-6-(4-morpholin-4-yl-phenyl)-1,2,3,4-tetrahydro-[1,8]naphthyridine] |
| > 100 | 225 °C | 0.1 to 1 | O=C1CNc2ncc(-c3ccc(NS(=O)(=O)CCN4CCOCC4)cc3)cc2N1Cc1cc(F)ccc1F [Example 50, 2-Morpholin-4-yl-ethanesulfonic acid{4-[1-(2,5-difluorobenzyl)-2-oxo-1,2,3,4-tetrahydropyrido[2,3-b]pyrazin-7-yl]phenyl}-amide] |
| 0.1 to 1 | 188 to 190 °C | < 0.1 | N#Cc1c(F)ccc(F)c1CN1CCNc2ncc(-c3ccc(N4CCOCC4)nc3)cc21 [Example 289, 3,6-Difluoro-2-[7-(6-morpholin-4-yl-pyridin-3-yl)-3,4-dihydro-2H-pyrido[2,3-b]pyrazin-1-ylmethyl]benzonitrile] |
| > 100 | 156 to 157 °C | 1 to 10 | Fc1ccc(F)c(CN2CCNc3ncc(I)cc32)c1Cl [Example 98, 1-(2-Chloro-3,6-difluorobenzyl)-7-iodo-1,2,3,4-tetrahydropyrido[2,3-b]pyrazine] |
| 1 to 10 | 180 °C | 0.1 to 1 | CN1CCN(C(=O)c2ccc(-c3cnc4c(c3)N(Cc3cc(F)ccc3F)CCN4)cc2)CC1 [Example 67, {4-[1-(2,5-Difluorobenzyl)-1,2,3,4-tetrahydropyrido[2,3-b]pyrazin-7-yl]phenyl}-(4-methylpiperazin-1-yl)methanone] |
| > 100 | 225 °C (dec.) | 10 to 100 | CN1CCN(c2ccc(-c3cnc4c(c3)NCCN4)cn2)CC1 [Example 109, 7-[6-(4-Methylpiperazin-1-yl)pyridin-3-yl]-1,2,3,4-tetrahydropyrido[2,3-b]pyrazine] |
| 10 to 100 | 217 to 219 °C | < 0.1 | Fc1ccc(F)c(CN2CCNc3ncc(-c4ccc(N5CCOCC5)cc4)cc32)c1Cl [Example 108, 1-(2-Chloro-3,6-difluorobenzyl)-7-(4-morpholin-4-yl-phenyl)-1,2,3,4-tetrahydropyrido[2,3-b]pyrazine] |
| > 100 | 205 °C | 0.1 to 1 | Clc1ccc(Cl)c(CN2CCNc3ncc(-c4ccc(Cl)nc4)cc32)c1 [Example 165, 7-(6-Chloropyridin-3-yl)-1-(2,5-dichlorobenzyl)-1,2,3,4-tetrahydropyrido[2,3-b]pyrazine] |
| 10 to 100 | 250 to 251 °C | < 0.1 | Fc1ccc(F)c(CN2CCNc3ncc(-c4cnc(N5CCOCC5)nc4)cc32)c1Cl [Example 107, 1-(2-Chloro-3,6-difluorobenzyl)-7-(2-morpholin-4-yl-pyrimidin-5-yl)-1,2,3,4-tetrahydropyrido[2,3-b]pyrazine] |
| > 100 | 173 to 174 °C | 0.1 to 1 | CCOC(=O)c1ccc(-c2cnc3c(c2)N(Cc2cc(F)ccc2F)CCN3)cc1 [Example 63, 4-[1-(2,5-Difluorobenzyl)-1,2,3,4-tetrahydropyrido[2,3-b]pyrazin-7-yl]benzoic acid ethyl ester] |
| 10 to 100 | > 300 °C | 0.1 to 1 | O=C(O)c1ccc(-c2cnc3c(c2)N(Cc2cc(F)ccc2F)CCN3)cc1 [Example 64, 4-[1-(2,5-Difluorobenzyl)-1,2,3,4-tetrahydropyrido[2,3-b]pyrazin-7-yl]benzoic acid] |
